Measurements: US12215111B2, “Imidazopyridazine IL-17 inhibitor compounds” (Janssen Pharmaceutica NV, priority 2021, dated 2025)
pIC50: −log10 of the molar value.

How the values were obtained:
[1] = target: IL-17A(FLAG-Tagged): IL-17RA(His-Tagged) (Homo sapiens, UniProt Q16552, K93Q); assay: IL-17A(FLAG-tagged):IL-17RA(His-tagged) binding disruption Eu-HTRF assay, Protocol 1; details: FLAG tagged IL-17A at 2× final concentration (2.5 nM); simple average if tested more than once
Excerpt: IL-17A(FLAG-Tagged): IL-17RA(His-Tagged) Binding Disruption Eu-HTRF Assay
An antibody directed against the FLAG tag of IL-17A (SEQ ID NO:1) is labeled with the HTRF donor chromophore (Europium-cryptate). IL-17A is present as a dimer that is “locked into” this quaternary structure due to the formation of loop-spanning […] disulfide bridges. The construct of IL-17RA used in the assay excludes the outer-membrane portion of the receptor and is fused to a C-terminal 10×His tag (SEQ ID NO:2). An antibody directed against the His tag of the IL-17RA chimera is labeled with the HTRF acceptor chromophore (“D2”). The fluorescence-resonance energy transfer (FRET) depends on the vicinity of the donor chromophore to the acceptor, and interruption of the binding between the IL-17A and IL-17RA causes the reduction/loss of FRET. Therefore, this assay allows to evaluate the compound effect on the binding IL-17A and IL-17RA by monitoring the fluorescence intensity of donor vs acceptor. The assay was run using either Protocol 1 or Protocol 2 described below.
Protocol 1: 40 nL of 2-fold serial diluted compound solution for total 22 dilution points is added into each well of a 1536-well, white, low-volume, non-binding plate (Greiner #782904), then 2 μl of FLAG tagged IL-17A at 2× final concentration (2.5 nM) in solution of PBS+0.01% Triton-X100 is added to each well. The assay plate is briefly centrifuged then incubated for 1 h at rt. A mixed solution is prepared containing 2×5 nM 10HIS×IL-17RA, 2×2.5 nM Eu-anti-FLAG (CISBIO), 2×5 nM D2-anti-HIS (CISBIO) in PBS+0.01% Triton-X100+200 mM Potassium Fluoride (Sigma 60238) and […] of mix is added to each well of the assay plate. The plate is briefly centrifuged then incubated for 2 h at rt. The HTRF intensities at the wavelength of donor (620 nm) and acceptor (665 nm) are measured using BMG Pherastar. The ratio between intensities at two wavelengths is calculated and plotted against the compound concentration and the data is fitted to a one-site competition model to yield IC50 of the compound.

[2] = system: IL-17A-induced G-CSF production in human normal keratinocyte (NHK); assay: NHK assay: IL-17A-induced G-CSF production in normal human keratinocytes; assay type: cell-based; details: IL-17A 5 ng/mL, 24 h at 37° C., G-CSF by HTRF, simple average if tested more than once
Method: IL-17A acts directly on keratinocytes through binding to dimeric receptor IL-17RA/RC and drives the production of a number of inflammatory mediators known to be elevated in psoriasis lesional tissue. IL-17A small molecule inhibitors that block the IL-17A to interact with IL-17R would inhibit the IL-17A signaling in its targeted cells such as keratinocytes. The compound functional activity is evaluated for its impact on IL-17A-induced G-CSF production in human normal keratinocyte (NHK).
Adult normal human keratinocytes are cultured in keratinocyte growth medium (Lonza) in a flask till reaching ˜90% confluence, then cells are transferred to a 384-well plate at density of 3000-4000 cell/well. Recombinant human IL-17A (Gibco PHC9174) is pre-incubated with titrated compound or DMSO for 1 h at rt then added to the cell culture plate. The final concentration of IL-17A is 5 ng/mL and DMSO is 0.2%, in the culture containing 5% FBS. Cells are cultured/treated for 24 h at 37° C. Supernatants are collected and G-CSF production is measured through HTRF technology using Human G-CSF Kit (CisBio). G-CSF concentration was extrapolated from the standard curve and IC50 is determined using GraphPad Prism. Cell viability is also evaluated using CellTiter-Glo kit (Promega) and effect of compound on cell viability is compared to DMSO control.

Sequence of UniProt Q16552 (Q16552 with tags, fused parts or gaps K93Q): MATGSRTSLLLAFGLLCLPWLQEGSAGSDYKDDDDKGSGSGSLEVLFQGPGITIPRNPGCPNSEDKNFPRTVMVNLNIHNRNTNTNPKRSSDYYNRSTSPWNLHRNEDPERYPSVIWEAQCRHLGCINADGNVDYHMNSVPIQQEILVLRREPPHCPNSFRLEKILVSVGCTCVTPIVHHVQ

| Structure (SMILES) | IC50 [1] | pIC50 ([2]; Homo sapiens, Keratinocyte) | pIC50 [2] |
| --- | --- | --- | --- |
| Cc1nonc1C(=O)N[C@H](c1cn2ncc([C@@H](C3CC3)N3C[C@@H](C4CC4)NC3=O)cc2n1)C1CCC(F)(F)CC1 [Example 17, N—[(S)—[7-[(R)-Cyclopropyl-[(4R)-4-cyclopropyl-2-oxo-imidazolidin-1-yl]methyl]imidazo[1,2-b]pyridazin-2-yl]-(4,4-difluorocyclohexyl)methyl]-4-methyl-1,2,5-oxadiazole-3-carboxamide] | < 4 µM | > 5.40 | – |
| [2H]C([2H])([2H])C([2H])([2H])n1nccc1C(=O)N[C@@H](COC(C)(C)C(F)(F)F)c1cn2ncc([C@@H](COC)N3C[C@@H](C(F)(F)F)NC3=O)cc2n1 [Example 12] | < 4 µM | > 5.40 | – |
| Cc1nonc1C(=O)N[C@H](c1cn2ncc([C@@H](C3CC3)N3CC(CC(F)(F)F)NC3=O)cc2n1)C1CCC(F)(F)CC1 (single isomer, unassigned) [Example 19, N—((S)-(7-((R)-Cyclopropyl((R*)-2-oxo-4-(2,2,2-trifluoroethyl)imidazolidin-1-yl)methyl)imidazo[1,2-b]pyridazin-2-yl)(4,4-difluorocyclohexyl)methyl)-4-methyl-1,2,5-oxadiazole-3-carboxamide] | < 4 µM | > 5.40 | – |
| Cc1nonc1C(=O)N[C@H](c1cn2ncc([C@@H](C3CC3)N3CC(CC(F)(F)F)NC3=O)cc2n1)C1CCC(F)(F)CC1 (single isomer, unassigned) [Example 20, N—((S)-(7-((R)-Cyclopropyl((S*)-2-oxo-4-(2,2,2-trifluoroethyl)imidazolidin-1-yl)methyl)imidazo[1,2-b]pyridazin-2-yl)(4,4-difluorocyclohexyl)methyl)-4-methyl-1,2,5-oxadiazole-3-carboxamide] | < 4 µM | – | > 5.40 |
| Cc1nonc1C(=O)N[C@H](c1cn2ncc([C@H](N3C[C@@H](C(F)(F)F)NC3=O)C3(C#N)CCC3)cc2n1)C1CCC(F)(F)CC1 [Example 22, N—((S)-(7-((S)—(1-Cyanocyclobutyl)((S)-2-oxo-4-(trifluoromethyl)imidazolidin-1-yl)methyl)imidazo[1,2-b]pyridazin-2-yl)(4,4-difluorocyclohexyl)methyl)-4-methyl-1,2,5-oxadiazole-3-carboxamide] | < 4 µM | > 5.40 | – |
| COC[C@H](c1cnn2cc([C@H](CC(C)(C)C(F)(F)F)NC(=O)c3nonc3C3CC3)nc2c1)N1C[C@@H](C(F)(F)F)NC1=O [Example 13, 4-Cyclopropyl-N—((S)-4,4,4-trifluoro-1-(7-((S)-2-methoxy-1-((S)-2-oxo-4-(trifluoromethyl)imidazolidin-1-yl)ethyl)imidazo[1,2-b]pyridazin-2-yl)-3,3-dimethylbutyl)-1,2,5-oxadiazole-3-carboxamide] | – | > 5.40 | – |
| Cc1nonc1C(=O)N[C@@H](CCC(C)(C)C(F)(F)F)c1cn2ncc([C@@H](COC3CC3)N3C[C@@H](C(F)(F)F)NC3=O)cc2n1 [Example 38, N—((S)-1-(7-((S)-2-Cyclopropoxy-((S)-2-oxo-4-(trifluoromethyl)imidazolidin-1-yl)ethyl)imidazo[1,2-b]pyridazin-2-yl)-5,5,5-trifluoro-4,4-dimethylpentyl)-4-methyl-1,2,5-oxadiazole-3-carboxamide] | – | > 5.40 | – |
| CC(C)(CC[C@H](NC(=O)c1nonc1C1CC1)c1cn2ncc([C@@H](COC3CC3)N3C[C@@H](C(F)(F)F)NC3=O)cc2n1)C(F)(F)F [Example 39, N—((S)-1-(7-((S)-2-Cyclopropoxy-((S)-2-oxo-4-(trifluoromethyl)imidazolidin-1-yl)ethyl)imidazo[1,2-b]pyridazin-2-yl)-5,5,5-trifluoro-4,4-dimethylpentyl)-4-cyclopropyl-1,2,5-oxadiazole-3-carboxamide] | – | > 5.40 | – |
| COC[C@H](c1cnn2cc([C@H](COC(C)(C)C(F)(F)F)NC(=O)c3nonc3C)nc2c1)N1C[C@@](C)(C(F)(F)F)NC1=O (single isomer, unassigned) [Example 30] | – | > 5.40 | – |
| [2H]C1([2H])[C@@H](C(F)(F)F)NC(=O)N1[C@H](COC)c1cnn2cc([C@H](COC(C)(C)C(F)(F)F)NC(=O)c3nonc3C3CC3)nc2c1 (relative stereo) [Example 16, 4-Cyclopropyl-N—((R)-1-(7-((S)-2-methoxy-1-((S*)-2-oxo-4-(trifluoromethyl)imidazolidin-1-yl-5,5-d2)ethyl)imidazo[1,2-b]pyridazin-2-yl)-2-(1,1,1-trifluoro-2-methylpropan-2-yl)oxy)ethyl)-1,2,5-oxadiazole-3-carboxamide] | – | > 5.40 | – |

The next lines start with results.

| IC50 [1] | Structure (SMILES) | pIC50 ([2]; Homo sapiens, Keratinocyte) | pIC50 [2] |
| --- | --- | --- | --- |
| < 4 µM | COC[C@H](c1cnn2cc([C@H](COC(C)(C)C(F)(F)F)NC(=O)c3nonc3C3CC3)nc2c1)N1C[C@@H](C(F)(F)F)NC1=O [Example 10] | > 5.40 | – |
| < 4 µM | COC[C@H](c1cnn2cc([C@H](COC(C)(C)C(F)(F)F)NC(=O)c3nonc3C)nc2c1)N1C[C@@H](C(F)(F)F)NC1=O [Example 9] | > 5.40 | – |
| < 4 µM | COC[C@H](c1cnn2cc([C@H](COC(C)(C)C(F)(F)F)NC(=O)[C@H]3C[C@@H]3C(F)(F)F)nc2c1)N1C[C@@H](C(F)(F)F)NC1=O (relative stereo) [Example 33, (1S*,2S*)—N—((R)-1-(7-((S)-2-Methoxy-1-((S)-2-oxo-4-(trifluoromethyl)imidazolidin-1-yl)ethyl)imidazo[1,2-b]pyridazin-2-yl)-2-(1,1,1-trifluoro-2-methylpropan-2-yl)oxy)ethyl)-2-(trifluoromethyl)cyclopropane-1-carboxamide] | > 5.40 | – |
| < 4 µM | Cc1nonc1C(=O)N[C@H](c1cn2ncc([C@@H](C3CC3)N3C[C@@H](C(C)C)NC3=O)cc2n1)C1CCC(F)(F)CC1 [Example 18, N—[(S)—[7-[(R)-Cyclopropyl-[(4R)-4-isopropyl-2-oxo-imidazolidin-1-yl]methyl]imidazo[1,2-b]pyridazin-2-yl]-(4,4-difluorocyclohexyl)methyl]-4-methyl-1,2,5-oxadiazole-3-carboxamide] | > 5.40 | – |
| < 4 µM | C[C@@H]1CN(Cc2cnn3cc([C@@H](NC(=O)c4nonc4C4CC4)C4CCC(F)(F)CC4)nc3c2)C(=O)N1 [Example 6, 4-Cyclopropyl-N—((S)—(4,4-difluorocyclohexyl)(7-(((R)-4-methyl-2-oxoimidazolidin-1-yl)methyl)imidazo[1,2-b]pyridazin-2-yl)methyl)-1,2,5-oxadiazole-3-carboxamide] | > 5.40 | – |
| < 4 µM | Cc1nonc1C(=O)N[C@H](c1cn2ncc(CN3CCNC3=O)cc2n1)C1CCC(F)(F)CC1 [Example 1, (S)—N-((4,4-Difluorocyclohexyl)(7-((2-oxoimidazolidin-1-yl)methyl)imidazo[1,2-b]pyridazin-2-yl)methyl)-4-methyl-1,2,5-oxadiazole-3-carboxamide] | 5.00 to 5.40 | – |
| < 4 µM | O=C(N[C@H](c1cn2ncc(CN3CCNC3=O)cc2n1)C1CCC(F)(F)CC1)c1nonc1C1CC1 [Example 2, (S)-4-Cyclopropyl-N-((4,4-difluorocyclohexyl)(7-((2-oxoimidazolidin-1-yl)methyl)imidazo[1,2-b]pyridazin-2-yl)methyl)-1,2,5-oxadiazole-3-carboxamide] | > 5.40 | – |
| < 4 µM | COC[C@H](c1cnn2cc([C@H](COC(C)(C)C(F)(F)F)NC(=O)c3ccnn3C(C)C)nc2c1)N1C[C@@H](C(F)(F)F)NC1=O [Example 11] | > 5.40 | – |
